Reference: patent US20040029172A1, “Generation of combinatorial libraries and assessment thereof by deconvolution” (priority 2000, published 2004)

Molecular target: Concanavalin A (Canavalia ensiformis, UniProt P02866)
Details: FIG. 5; complete library 2:1-6 and 2:A-I
Description: Concanavalin A and all reagents were obtained from common commercial sources (Lancaster, Fluka, Aldrich, Bachem, Sigma). […] The binding effect of the equilibrated mixtures was determined using competitive inhibition of enzyme-labelled concanavalin A, and were carried out using a Victor microtiter plate reader.
The complete library (CL) was designed to contain near equal amounts of each final species at a concentration of approximately 12 μM. The final solution contained 2.5 mM of each carbohydrate aldehyde (2:1-6), and varying amounts of hydrazides: 2:A, 70 μM; 2:B-E, 0.24 mM; 2:F, 0.42 mM; 2:G, 0.65 mM; 2:H, 0.88 mM; 2:I, 2.5 mM. The mixture was made in ammonium formate buffer at pH 4.0, and was equilibrated at ambient temperature for one week to ensure full reaction.
The different sublibraries (SL1-SLI) were prepared under identical conditions, where one component (2:1-6, 2:A-I) was removed from the mixture each time. Aliquots of the solution were subsequently taken out to test the inhibitory activity on Concanavalin A.

O=Cc1ccc(OC2OC(CO)C(O)C(O)C2O)cc1 (stereo not shown) [2:6]
effect on Con A binding when the component is removed from the complete library: largest effects
